# Source: US5460797A, “Method for fixing tissues and cells for analysis using oxazolidine compounds” (Streck Laboratories, Inc., priority 1994, dated 1995)
# Like-named read-outs stand apart in the source and are kept apart here.
# Tests used:
# [1] = system: WBC's; experiment: WBC fixation (cells do not disintegrate or clump after removal of compound); format: cell-based; details: 6% w/v solution, 24 hours, 22° C
# Protocol: (§1) A 6% w/v solution of each compound was used and samples tested at 24 hours (22° C). […] Relative RBC fixation was detected by adding known RBC lysing agent. […] Fixing is relative and depends on how long you want cells or tissues to remain fixed.
# [2] = system: 6C3HED lymphosarcoma; experiment: Tumor immunization with fixed ascites cells and challenge with viable cells; format: in vivo, C3H mice; details: cells fixed in 3% agent; two immunizations; challenge 100,000 viable cells i.p.; ">65" is given as "No deaths at 65 days"
# Protocol: (§2) Tumor Immunization. 6C3HED lymphosarcoma was grown in C3H mice as ascites (ascites cause collection of fluid in the peritoneal cavity). The ascites cells were then washed in phosphate buffered saline (PBS) containing 3% IDU, 3% Glydant, or 3% Dimethylol urea. The cells were then placed at 6° C. for 48 hours.
# As a control for immunization, cells were also washed into PBS containing 3% para formaldehyde and held under the same conditions. After 48 hours, all the cell groups were washed into PBS to remove the fixatives. The cell count was adjusted to 200,000/ml. Five C3H mice were injected with each of the cell groups for the first immunization. The procedure was repeated two weeks later.
# The immunized mice were challenged with 100,000 viable 63HED ascites cells by intraperitoneal injection. The efficacy of the immunization was determined by the average death time for each group of mice.
# [3] = system: RBC's; experiment: Relative RBC fixation detected by adding RBC lysing agent; format: cell-based; details: 6% w/v solution, 24 hours, 22° C
# Protocol: as §1
# [4] = Formaldehyde content or release; format: physicochemical
# [5] = system: tetanus toxin; format: in vivo, Swiss mice
# [6] = system: human white blood cells; experiment: Stabilization of white blood cells for flow cytometry (leukocyte positive control); format: cell-based
# Text: Leukocyte Positive Control Check for Antigen-Antibody Studies. Positive control methods are needed to verify the performance of reagents, preparation methods, staining procedures as well as the performance of the flow cytometer instrumentation itself. This requires a preparation of human white blood cells, preferably with a mixed distribution of leukocytes (lymphocytes, monocytes, and granulocytes), to evaluate the performance of the procedure before it is used to evaluate subject tissues, cells, or cell components. While much of the methodology used in this procedure is familiar to those skilled in the art, this invention is novel in its use of imidazolidinyl urea (IDU) as a cell stabilizer, the use of polyethylene glycol to reduce damage to the white blood cells during processing, the use of PMSF to inhibit protease activity, and the process itself.
# The invention discloses a new method of producing a positive control check material with significant advances over the prior art. Production is begun by placing one pack of human white blood cells, obtainable from commercial blood banks, in each bottle of the centrifuge. Samples from each pack are placed into a plastic tube for screening on the flow cytometer. Because of the considerable variation from donor to donor in cluster designation antigen sites, only packs with similar properties are pooled. Each product pool should be limited to a particular ABO blood type to prevent clumping as a result of a histoin-compatibility reaction between the cells. The samples are placed into plastic tubes rather than glass because unfixed white blood cells may be activated by the glass causing them to adhere to the glass and each other.
# The cells are prefixed 1:1 with 1% IDU in phosphate buffered saline ethylenediaminetetraacetic acid (PBS-EDTA) at 6° C. for one hour. […] The cells and all diluents used in the processing must be kept at 6° C. at all times by use of refrigeration and a chiller bath to reduce the amount of cell damage which alters the scattergram.
# The bottle are next centrifuged at 900 rpm for 10 minutes, and the supernatant is removed. This angular velocity is sufficient to pellet the white blood cells without damaging them. Ammonium chloride tris, 200 ml/bottle set at 6° C. for 20-30 minutes, is then used to lyse the red blood cells.
# A second centrifugation follows, again at 900 rpm for 10 minutes, and the supernatant is removed. Next 250 ml/bottle of ammonium chloride tris are added at 6° C. or 45-60 minutes, with 60 minutes usually ensuring complete lysis of the red blood cells.
# The material is then centrifuged a third time at 900 rpm for 10 minutes and then the supernatant is removed. […]
# [7] = system: 6C3HED lymphosarcoma ascites cells; experiment: Vital staining of ascites cells held in fixative 48 hours; format: cell-based, C3H mice; details: 3% in PBS, 6° C.
# Protocol: as §2
# [8] = Toxicity studies comparing diazolidinyl urea with formaldehyde; format: in vivo; details: for LD50: route and species not given
# Text: Unlike the typical histological fixing agents, the active agents of the invention have extremely low toxicity. For example, toxicity studies comparing diazolidinyl urea of the invention with formaldehyde of the prior art show the following: […]
# [9] = system: albumin; details: 24 hours incubation
# Protocol: Formaldehyde cross-links with itself and proteins to obscure the antigen. To determine if this is true, diazolidinyl urea was added to the protein, albumin.
# [10] = solution (Glydant), as such (Suttocide)
compound,measurement,setting,value
imidazolidinyl urea,Fixation of WBC's,[1],Fixes both RBC's and WBC's
same,Average Death Days,[2],> 65 days
same,Fixation of RBC's,[3],Fixes both RBC's and WBC's
same,Formaldehyde release,[4],Decomposition releases formaldehyde
same,"percent increase in antibody titer over formalin, 14 Days",[5]; 14 days,200%
same,"percent increase in antibody titer over formalin, 28 Days",[5]; 28 days,560%
same,"Effect on white blood cells, prefixation","[6]; 1% IDU in PBS-EDTA, 1:1, 6° C., one hour",stabilize the white blood cells without interfering with the lysis of the red blood cells
same,"Effect on cells, fixation","[6]; 3% IDU, 6° C., 2 days",stabilizes the cells for use on the flow cytometer
same,"Effect on cells, fixation at higher concentrations",[6]; IDU concentrations higher than 3%,causing cells to lose the cluster designation marker and produce scatterplot changes
same,"Effect on cells, fixation at lower concentrations",[6]; IDU concentrations lower than 3%,reducing stability
same,Viability by vital staining,[7],none of the cells were viable
"CC1(C)C(=O)N(CO)C(=O)N1CO [Glydant, Dimethylol-5,5-dimethylhydantoin]",Fixation of WBC's,[1],Fixes both RBC's and WBC's
same,Average Death Days,[2],> 65 days
same,Fixation of RBC's,[3],Fixes both RBC's and WBC's
same,Formaldehyde content,[4]; [10],2.1%
same,Viability by vital staining,[7],none of the cells were viable
"O=[N+]([O-])C(Br)(CO)CO [Bronopol, 2-bromo-2-nitropropane-1,3-diol]",Fixation of WBC's,[1],Fixes both RBC's and WBC's
same,Fixation of RBC's,[3],Fixes both RBC's and WBC's
same,Formaldehyde release,[4],Decomposition liberates formaldehyde
"O=C(NCO)NCO [Dimethylol urea, dimethylol urea]",Average Death Days,[2],> 65 days
"para formaldehyde [Control, reference compound]",Average Death Days,[2],10 days
"O=C(O)CNCO [Suttocide, Sodium hydroxymethyl glycinate]",Fixation of WBC's,[1],Fixes RBC's and WBC's
same,Fixation of RBC's,[3],Fixes RBC's and WBC's
same,Formaldehyde content,[4]; [10],1%
"C=O [Formaldehyde, formaldehyde, reference compound]",Dermal Toxicity,[8]; in vivo,270 mg/kg
same,Inhalation Toxicity,[8]; in vivo,500 mg/kg
same,LD50,"[8]; in vivo, read-out: LD50",800 mg/kg
same,Disc-gel electrophoresis result with albumin,[9],a large number of multimers and insoluble proteins result
diazolidinyl urea,Dermal Toxicity,[8]; in vivo,2000 mg/kg
same,Inhalation Toxicity,[8]; in vivo,None
same,LD50,[8],2570 mg/kg
same,Fixation of WBC's,[1],Fixes both RBC's and WBC's
same,Fixation of RBC's,[3],Fixes both RBC's and WBC's
same,Formaldehyde content,[4],1-2 ppm
same,Disc-gel electrophoresis result with albumin,[9],no change in the rate of migration of the protein
